One experiment deals with TNF-α convertases. The experiment can be described thus: In vitro assays for TNF-α convertase activity (protease inhibitor profile). It counts as biochemical. As to the method: For the assay of convertase activity associated with or isolated from membrane preparations, a protein-based assay was carried out essentially as described by Mohler et al., Nature 370:218 (1995).
Briefly, a peptide-tagged recombinant human TNF-α protein substrate (Flag-TNF-α) was cloned and expressed in E. coli. The protein was purified by affinity chromatography using an M2 (anti-Flag)-Sepharose column (Kodak), and by ion exchange chromatography using a BIOCAD equipped with an HQ10 column.
To test for convertase activity, a membrane protein sample (12 μg) was mixed (in 12 μl) with 2 ng of ^125I-polypeptide substrate (approximately 50,000 cpm) in the presence of inhibitors of other proteolytic enzymes [e.g., 200 μM 4-(2-aminoethyl)-benzenesulfonyl fluoride hydrochloride (AEBSF), 2 μM pepstatin, 200 μM leupeptin, 1 mM methoxysuccinyl-Ala-Ala-Pro-Val-chloromethylketone (AAPV)], and with or without 2.5 mM EDTA. Following incubation at 37° C. overnight, samples were fractionated in a 16% sodium dodecylsulfate (SDS) gel and subjected to SDS polyacrylamide gel electrophoresis [SDS-PAGE; Laemmli, Nature 227:680 (1970)]. The gels were dried, and radioactivity was detected by autoradiography.
A polypeptide-based assay for TNF-α convertase activity was also carried out essentially using the method of Mohler et al., supra. Briefly, an amino-terminal dinitrophenylated peptide substrate, amidated at the carboxyl terminus (SEQ ID NO: 4) was synthesized and purified using standard procedures. Dinitrophenylated polypeptides corresponding to cleavage products expected for TNF-α convertase (a dinitrophenylated peptide having the sequence of residues 1-6 of SEQ ID NO: 4) and for other membrane proteases were also synthesized.
To test for convertase activity, a membrane protein sample was mixed in 50 μl with 1 μg peptide substrate in the presence of inhibitors (0.2 mM AEBSF, 2 μM pepstatin, 200 μM leupeptin, 1 mM AAPV). Following incubation at 37° C. for from 60 minutes to overnight, the protein was precipitated by cold 5% trichloroacetic acid (TCA), 20% acetonitrile, and the soluble peptide fraction was applied to a YMC 120 angstrom C-18 ODS-AQ column (4.6×100 mm; YMC, Inc.). The column was eluted isocratically at a flow rate of 1 ml/min using 40% acetonitrile plus 0.06% trifloroacetic acid. The elution of DNP-peptide was monitored at 360 nm using a Waters 625 LC system.

Experiment [1] deals with TNF-α secretion. Particulars: in vitro; cited from earlier work.
In experiment [2] the test system is TNF-α secretion. Particulars: in vivo; cited from earlier work.
Another experiment concerns lethal dose of endotoxin. Particulars: mice; cited from earlier work.
Setting [3] is: general property, concentration not given.

Like-named read-outs stand apart in the source and are kept apart here. The star is where a group is joined. MeOSuc = COC(=O)CCC(=O)*; CH2Cl = ClC*

Turning to `O[C@H](CS)[C@H](O)CS` (racemic) [DTT, dithiothreitol], in the experiment on TNF-α convertases (setting [3]), the “inhibition of TNF-α convertases” value is given as “Inhibited”.
Turning to `CC(C)C[C@H](NC(=O)[C@H]1O[C@@H]1C(=O)O)C(=O)NCCCCN=C(N)N` (relative stereo) [E64], the “inhibition of TNF-α convertases” value with TNF-α convertases (100 μM) was “Not inhibited”.
In the case of `c1cnc2c(c1)ccc1cccnc12` [1,10-phenanthroline], the “inhibition of TNF-α convertases” value in the experiment with TNF-α convertases (setting [3]) was “Inhibited”.
On to `O=c1oc(Cl)c(Cl)c2ccccc12` [DCI, dichloroisocoumarin], for which the “inhibition of TNF-α convertases” value with TNF-α convertases (100 μM) is “Not inhibited”.
As to `O=C(O)CN(CCN(CC(=O)O)CC(=O)O)CC(=O)O` [EDTA, ethylenediaminetetraacetic acid], the “inhibition of TNF-α convertases” value in the experiment on TNF-α convertases (setting [3]) is “Inhibited”. For the same molecule, the “band at the position of the 17 kDa human TNF-α cleavage product (SDS-PAGE autoradiography)” value with TNF-α convertases (membrane protein sample, 125I Flag-TNF-α substrate, with or without 2.5 mM EDTA, 37° C. overnight) is given as “intensified bands from the samples incubated without EDTA”.
Regarding `CNC(=O)[C@H](Cc1ccccc1)NC(=O)[C@H](CC(C)C)[C@H](CSc1ccccc1)C(=O)NO` [GI 129471], the “block of TNF-α secretion” value in the experiment on TNF-α secretion [1] and in the experiment with TNF-α secretion [2] was “block TNF-α secretion” in each case.
For the molecule `O=C(O)CI` [IAA, iodoacetic acid], in the experiment with TNF-α convertases (1 mM), the “inhibition of TNF-α convertases” value was “Not inhibited”.
As to `CC(C)CC(CC(=O)NO)C(=O)N[C@@H](Cc1ccc2ccccc2c1)C(=O)N[C@@H](C)C(=O)NCCN` (stereo partly drawn) [N-{D,L-[2-(hydroxyaminocarbonyl)methyl]-4-methylpentanoyl}L-3-(2′naphthyl)-alanyl-L alanine, 2-aminoethyl amide], the “protection against a lethal dose of endotoxin” value in the experiment with lethal dose of endotoxin was “protect mice against a lethal dose of endotoxin”.
Regarding `C[C@H](CS)C(=O)N1CCC[C@H]1C(=O)O` [captopril], the “inhibition of TNF-α convertases” value in the experiment on TNF-α convertases (100 μM) is on record as “Not inhibited”.
For the molecule `CC(C)C[C@H](NP(=O)(O)O[C@@H]1O[C@@H](C)[C@H](O)[C@@H](O)[C@H]1O)C(=O)N[C@@H](Cc1c[nH]c2ccccc12)C(=O)O` [phosphoramidon], the “inhibition of TNF-α convertases” value with TNF-α convertases (300 μM) is “Not inhibited”.
As to `O=C(O)CNC(=O)C(CS)Cc1ccccc1` (centres unmarked) [thiorphan], the “inhibition of TNF-α convertases” value in the experiment on TNF-α convertases (100 μM) is on record as “Not inhibited”.
With “TIMP-1: tissue inhibitor of metalloproteases-1”, in the experiment with TNF-α convertases (1 μg/ml), the “inhibition of TNF-α convertases” value is “Not inhibited”.
As to “methoxysuccinyl-Ala-Ala-Pro-Val-chloromethylketone (MeOSuc-AAPV-CH2Cl)”, in the experiment on TNF-α convertases (1 mM), the “inhibition of TNF-α convertases” value is on record as “Not inhibited”.
As to “α-2 macroglobulin: protein protease inhibitor”, the “inhibition of TNF-α convertases” value in the experiment on TNF-α convertases (setting [3]) is on record as “Inhibited”.

B1: SBTI: soybean trypsin inhibitor (protein, UniProt P01070 25-205, looked up)
Trypsin inhibitor A: DFVLDNEGNPLENGGTYYILSDITAFGGIRAAPTGNERCPLTVVQSRNELDKGIGTIISSPYRIRFIAEGHPLSLKFDSFAVIMLCVGIPTEWSVVEDLPEGPAVKIGENKDAMDGWFRLERVSDDEFNNYKLVFCPQQAEDDKCGDIGISIDHDDGTRRLVVSKNKPLVVQFQKLDKESL
As for B1, the “inhibition of TNF-α convertases” value in the experiment on TNF-α convertases (1 μg/ml) is “Not inhibited”.
